The test system of this assay is cancer cell lines. In words: Cancer cell proliferation activity (CellTiterGlo, 72 h). Type of assay: cell-based. The settings on record: 72 h, 72 h, read-out: IC50 cell proliferation. The procedure:
Dose response relationships on cell proliferation was assessed for representative Compounds of the Disclosure on cancer cell lines. Briefly, compound treatment of cells started one day after seeding with a final DMSO concentration of 0.1%, and was performed by nanodrop-dispensing using a Tecan Dispenser. 0.1% DMSO (solvent) and Staurosporine (10 μM) served as high control (100% viability) and low control (0% viability), respectively.
Cells were cultured in the appropriate media. For the assays, cells were seeded in white cell culture-treated flat and clear bottom multiwell plates and incubated at 37° C. overnight before compound was added. After incubation for 72 h at 37° C. at 5% or 10% CO2 dependent on the medium, cell plates were equilibrated to room temperature for one hour, CellTiterGlo reagent (Promega) was added and luminescence was measured approximately an hour later using a luminometer.
Raw data were converted into percent cell viability relative to the high and low control, which were set to 100% and 0%, respectively.
The IC50 values are summarized in Tables 9A-1, Table 10A, and Table 10B.
On the technique in general: ATP-based viability assays read luminescence as a measure of living cells.

The mark [1] stands for this setting: Homo sapiens, A204, 72 h, A204 (muscle).
[2] abbreviates: Homo sapiens, ACHN, ACHN (kidney).
The mark [3] stands for this setting: Homo sapiens, ASPC1, 72 h, ASPC1 (pancreas).
Setting [4] is: Homo sapiens, BXPC-3, 72 h, BXPC3 (pancreas).
[5] abbreviates: Homo sapiens, Caco-2, 72 h, CACO2 (colon).
The mark [6] stands for this setting: Homo sapiens, Granta-519, 72 h, GRANTA-519 (hematological).
The mark [7] stands for this setting: Homo sapiens, Kasumi 1, 72 h, KASUMI-1 (hematological).
The mark [8] stands for this setting: Homo sapiens, LoVo, LOVO (colon).
Where [9] appears, read: Homo sapiens, MDA-MB-231, 72 h, MDAMB231 (breast).
Where [10] appears, read: Homo sapiens, MDA-MB-436, 72 h, MDAMB436 (breast).
The mark [11] stands for this setting: Homo sapiens, MINO, MINO (hematological).
Where [12] appears, read: Homo sapiens, SK-BR-3, 72 h, SKBR3 (breast).

Read-outs that look alike come from different tables or passages of the source.

Take `C#C[C@]1(CO)O[C@@H](n2cnc3c(=O)[nH]c(N)nc32)[C@H](F)[C@@H]1O` [compound 95, 2-amino-9-((2R,3R,4R,5R)-5-ethynyl-3-fluoro-4-hydroxy-5-(hydroxymethyl)tetrahydrofuran-2-yl)-1,9-dihydro-6H-purin-6-one]: the IC50 is 3900 nM (5637 (bladder)); 1350 nM under setting [1]; above 50000 nM under setting [2]; 4620 nM under setting [3]; above 50000 nM under setting [4]; above 50000 nM under setting [5]. The IC50 runs as follows: under setting [6], 4440 nM; under setting [7], 1630 nM; under setting [8], above 50000 nM; under setting [9], 1690 nM; under setting [10], 3850 nM; under setting [11], 2540 nM. In addition, the IC50 is above 50000 nM under setting [12] and 1590 nM (NCI-H358M, NCIH358M (lung)).
For `Nc1nc(F)nc2c1ncn2[C@H]1C[C@H](O)[C@](CO)(C2CC2)O1` [Cpd. No. 5, (2R,3S,5R)-5-(6-amino-2-fluoro-9H-purin-9-yl)-2-cyclopropyl-2-(hydroxymethyl)tetrahydrofuran-3-ol], the IC50 is 4930 nM (5637 (bladder)); 2320 nM under setting [1]; 3670 nM under setting [2]; 2620 nM under setting [3]; above 50000 nM under setting [4]; 7850 nM under setting [5]. Further, the IC50 under setting [6] was above 50000 nM; the IC50 under setting [7] amounted to 1400 nM; the IC50 under setting [8] was 2750 nM; the IC50 under setting [9] was above 50000 nM; the IC50 under setting [10] is 2900 nM; the IC50 under setting [11] came out at 1750 nM. The IC50 under setting [12] came out at 1060 nM and the IC50 (NCI-H358M, NCIH358M (lung)) came out at 1980 nM.
Turning to `C#C[C@]1(CO)O[C@@H](n2cc(Cl)c(N)nc2=O)C[C@@H]1O` [Cpd. No. 109, 4-amino-5-chloro-1-((2R,4S,5R)-5-ethynyl-4-hydroxy-5-(hydroxymethyl)tetrahydrofuran-2-yl)pyrimidin-2(1H)-one], the IC50 runs as follows: (5637 (bladder)) 10 nM; under setting [1], 4020 nM; under setting [2], 1260 nM; under setting [3], 2930 nM; under setting [4], 500 nM; under setting [5], 3280 nM. Also, the IC50 is, setting by setting: under setting [6], 920 nM; under setting [7], 1690 nM; under setting [8], 2540 nM; under setting [9], 400 nM; under setting [10], 3490 nM; under setting [11], 370 nM. In addition, the IC50 runs as follows: under setting [12], 980 nM; (NCI-H358M, NCIH358M (lung)) 10 nM.
With `Nc1nc(F)nc2c1ncn2[C@H]1C[C@H](O)[C@](CO)(CC2CC2)O1` [Cpd. No. 130, (2R,3S,5R)-5-(6-amino-2-fluoro-9H-purin-9-yl)-2-(cyclopropylmethyl)-2-(hydroxymethyl)tetrahydrofuran-3-ol], the IC50 is, setting by setting: (5637 (bladder)) 2060 nM; under setting [1], 1710 nM; under setting [2], 3830 nM; under setting [3], 620 nM; under setting [4], 3280 nM; under setting [5], 1500 nM. Besides, the IC50 runs as follows: under setting [6], 5220 nM; under setting [7], 210 nM; under setting [8], 490 nM; under setting [9], above 50000 nM; under setting [10], 530 nM; under setting [11], 300 nM. Besides, the IC50 under setting [12] worked out at 120 nM and the IC50 (NCI-H358M, NCIH358M (lung)) came out at 930 nM.
Take `N#C[C@]1(CO)O[C@@H](n2cc(F)c(=O)[nH]c2=O)C[C@@H]1O` [Cpd. No. 107, (2R,3S,5R)-5-(5-fluoro-2,4-dioxo-3,4-dihydropyrimidin-1(2H)-yl)-3-hydroxy-2-(hydroxymethyl)tetrahydrofuran-2-carbonitrile]: the IC50 runs as follows: (5637 (bladder)) 2220 nM; under setting [1], above 50000 nM; under setting [2], 3840 nM; under setting [3], 1580 nM; under setting [4], 1000 nM; under setting [5], above 50000 nM. In addition, the IC50 under setting [6] came to 1860 nM; the IC50 under setting [7] was above 50000 nM; the IC50 under setting [8] was above 50000 nM; the IC50 under setting [9] is above 50000 nM; the IC50 under setting [10] is above 50000 nM; the IC50 under setting [11] worked out at 2340 nM. Moreover, the IC50 runs as follows: under setting [12], 970 nM; (NCI-H358M, NCIH358M (lung)) above 50000 nM.
As to `CC[C@]1(CO)O[C@@H](n2cnc3c(O)nc(N)nc32)C[C@@H]1O` [Cpd. No. 223, 2-amino-9-((2R,4S,5R)-5-ethyl-4-hydroxy-5-(hydroxymethyl)tetrahydrofuran-2-yl)-9H-purin-6-ol], the IC50 reads like this: (5637 (bladder)) above 50000 nM; under setting [1], 1830 nM; under setting [2], above 50000 nM; under setting [3], above 50000 nM; under setting [4], above 50000 nM; under setting [5], above 50000 nM. The IC50 is, setting by setting: under setting [6], 1400 nM; under setting [7], 1460 nM; under setting [8], above 50000 nM; under setting [9], 6280 nM; under setting [10], above 50000 nM; under setting [11], 2700 nM. For the same molecule, the IC50 by setting is: under setting [12], above 50000 nM; (NCI-H358M, NCIH358M (lung)) 2960 nM.
With `O=c1[nH]c(=O)n([C@H]2C[C@H](O)[C@@H](CO)O2)cc1F` [compound 185, 5-fluoro-1-((2R,4S,5R)-4-hydroxy-5-(hydroxymethyl)tetrahydrofuran-2-yl)pyrimidine-2,4(1H,3H)-dione], the IC50 stood at 1 nM (5637 (bladder)); 77 nM under setting [1]; 4 nM under setting [2]; 5 nM under setting [3]; 2 nM under setting [4]; 116 nM under setting [5]. Also, the IC50 is, setting by setting: under setting [6], 2 nM; under setting [7], 24 nM; under setting [8], 7 nM; under setting [9], 76 nM; under setting [10], 6 nM; under setting [11], 4 nM. The IC50 came out at 1 nM under setting [12] and 12 nM (NCI-H358M, NCIH358M (lung)).
As for `C[C@]1(CO)O[C@@H](n2cnc3c(O)nc(N)nc32)C[C@@H]1O` [Cpd. No. 115, 2-amino-9-((2R,4S,5R)-4-hydroxy-5-(hydroxymethyl)-5-methyltetrahydrofuran-2-yl)-9H-purin-6-ol], the IC50 by setting is: (5637 (bladder)) 7010 nM; under setting [1], 630 nM; under setting [2], 2810 nM; under setting [3], above 50000 nM; under setting [4], above 50000 nM; under setting [5], above 50000 nM. Moreover, the IC50 under setting [6] was 2220 nM; the IC50 under setting [7] is 2130 nM; the IC50 under setting [8] is above 50000 nM; the IC50 under setting [9] came out at 3400 nM; the IC50 under setting [10] stood at 4090 nM; the IC50 under setting [11] was determined as 1720 nM. The IC50 under setting [12] came to 3450 nM and the IC50 (NCI-H358M, NCIH358M (lung)) is 1070 nM.

Source of the values: US20250215039A1, “NUCLEOSIDES FOR TREATING CANCER” (PRIMEFOUR THERAPEUTICS, INC., priority 2022, published 2025).
